{
  "source": "patent US5466671A",
  "about": "“Apidaecin-type peptide antibiotics with improved activities and/or different antibacterial spectrum” (priority 1994, dated 1995)",
  "key": {"[1]": {"test_system": "Escherichia coli (ATCC11775)", "test": "Inhibition zone assay (agar plate)", "type": "cell-based", "details": "agar plate, 50 nanomoles/well, 3 mm wells"}, "Enterobacter cloacae": {"test_system": "Enterobacter cloacae", "test": "Inhibition zone assay (agar plate)", "type": "cell-based", "details": "agar plate, 50 nanomoles/well, 3 mm wells"}, "Erwinia amylovora": {"test_system": "Erwinia amylovora", "test": "Inhibition zone assay (agar plate)", "type": "cell-based", "details": "agar plate, 50 nanomoles/well, 3 mm wells"}, "Klebsiella pneumoniae": {"test_system": "Klebsiella pneumoniae", "test": "Inhibition zone assay (agar plate)", "type": "cell-based", "details": "agar plate, 50 nanomoles/well, 3 mm wells"}, "Morganella morganii": {"test_system": "Morganella morganii", "test": "Inhibition zone assay (agar plate)", "type": "cell-based", "details": "50 nanomoles/well, 3 mm wells"}, "Salmonella typhimurium": {"test_system": "Salmonella typhimurium", "test": "Inhibition zone assay (agar plate)", "type": "cell-based", "details": "agar plate, 50 nanomoles/well, 3 mm wells"}, "Yersinia enterocolitica": {"test_system": "Yersinia enterocolitica", "test": "Inhibition zone assay (agar plate)", "type": "cell-based", "details": "50 nanomoles/well, 3 mm wells"}, "[2]": {"test_system": "Acinetobacter calcoaceticus", "test": "Inhibition zone assay (agar plate)", "type": "cell-based", "details": "agar plate, 50 nanomoles/well, 3 mm wells"}, "[3]": {"test_system": "Agrobacterium tumefaciens", "test": "Inhibition zone assay (agar plate)", "type": "cell-based", "details": "agar plate, 50 nanomoles/well, 3 mm wells"}, "Pseudomonas syringae": {"test_system": "Pseudomonas syringae", "test": "Inhibition zone assay (agar plate)", "type": "cell-based", "details": "agar plate, 50 nanomoles/well, 3 mm wells"}, "Rhizobium meliloti": {"test_system": "Rhizobium meliloti", "test": "Inhibition zone assay (agar plate)", "type": "cell-based", "details": "50 nanomoles/well, 3 mm wells"}, "Haemophilus influenzae": {"test_system": "Haemophilus influenzae", "test": "Inhibition zone assay (agar plate)", "type": "cell-based", "details": "50 nanomoles/well, 3 mm wells"}, "E. coli Apid^R [4]": {"test_system": "E. coli Apid^R", "test": "Minimal inhibitory concentration (liquid culture)", "type": "cell-based", "details": "a-b = highest concentration with growth - lowest without growth", "text": "For details see `Experimental Procedures`."}, "E. coli 11775 [5]": {"test_system": "E. coli 11775", "details": "against 10^7 cells/ml, parental strain ATCC 11775; cited from earlier work"}, "E. coli Apid^R [6]": {"test_system": "E. coli Apid^R", "details": "cited from earlier work"}, "E. coli 11775 [7]": {"test_system": "E. coli 11775", "test": "Minimal inhibitory concentration (liquid culture)", "details": "a-b = highest concentration with growth - lowest without growth"}, "E. coli 23802": {"test_system": "E. coli 23802", "test": "Minimal inhibitory concentration (liquid culture)", "details": "inoculum 5000 CFU/ml; a-b = highest concentration with growth - lowest without growth"}, "E. coli 25922": {"test_system": "E. coli 25922", "test": "Minimal inhibitory concentration (liquid culture)", "details": "inoculum 1100 CFU/ml; a-b = highest concentration with growth - lowest without growth"}, "S. typhimurium": {"test_system": "S. typhimurium", "test": "Minimal inhibitory concentration (liquid culture)", "details": "inoculum 8 × 10^6 CFU/ml; a-b = highest concentration with growth - lowest without growth"}, "A. calcoaceticus": {"test_system": "A. calcoaceticus", "test": "Minimal inhibitory concentration (liquid culture)", "details": "inoculum 16 × 10^6 CFU/ml; a-b = highest concentration with growth - lowest without growth"}, "M. morganii": {"test_system": "M. morganii", "test": "Minimal inhibitory concentration (liquid culture)", "details": "inoculum 400 CFU/ml; a-b = highest concentration with growth - lowest without growth"}, "Y. enterocolitica": {"test_system": "Y. enterocolitica", "test": "Minimal inhibitory concentration (liquid culture)", "details": "inoculum 5000 CFU/ml; a-b = highest concentration with growth - lowest without growth"}, "gram negative bacteria": {"test_system": "gram negative bacteria", "details": "many gram negative bacteria; cited from earlier work"}, "gram positives": {"test_system": "gram positives", "details": "cited from earlier work"}, "strains tested": {"test_system": "strains tested", "type": "cell-based", "details": "agar plate"}},
  "note": "Residues, ends and D or L forms follow the SMILES beside them.",
  "data": [
    {"smiles": "CC[C@H](C)[C@H](NC(=O)[C@H](Cc1ccc(O)cc1)NC(=O)[C@@H](NC(=O)[C@@H]1CCCN1C(=O)[C@H](CCCNC(=N)N)NC(=O)[C@H](CC(N)=O)NC(=O)[C@H](CC(N)=O)NC(=O)CN)C(C)C)C(=O)N1CCC[C@H]1C(=O)N[C@@H](CCC(N)=O)C(=O)N1CCC[C@H]1C(=O)N[C@@H](CCCNC(=N)N)C(=O)N1CCC[C@H]1C(=O)N1CCC[C@H]1C(=O)N[C@@H](Cc1c[nH]cn1)C(=O)N1CCC[C@H]1C(=O)N[C@@H](CCCNC(=N)N)C(=O)N[C@@H](CC(C)C)C(=O)O", "note": "[Hb Ib, reference compound] (H-GNNRPVYIPQPRPPHPRL-OH)", "values": [
      {"measurement": "inhibition zone diameter (number of plus signs)", "setting": "[1]", "result": "++++ ((++++) 15-19 mm)"},
      {"measurement": "inhibition zone diameter (number of plus signs)", "setting": "Enterobacter cloacae", "result": "+++ ((+++) 10-14 mm)"},
      {"measurement": "inhibition zone diameter (number of plus signs)", "setting": "Erwinia amylovora", "result": "++++ ((++++) 15-19 mm)"},
      {"measurement": "inhibition zone diameter (number of plus signs)", "setting": "Klebsiella pneumoniae", "result": "+++ ((+++) 10-14 mm)"},
      {"measurement": "inhibition zone diameter (number of plus signs)", "setting": "Morganella morganii", "result": "+ ((+) 5-6 mm)"},
      {"measurement": "inhibition zone diameter (number of plus signs)", "setting": "Salmonella typhimurium", "result": "+++ ((+++) 10-14 mm)"},
      {"measurement": "inhibition zone diameter (number of plus signs)", "setting": "Yersinia enterocolitica", "result": "+++ ((+++) 10-14 mm)"},
      {"measurement": "inhibition zone diameter (number of plus signs)", "setting": "[2]", "result": "+ ((+) 5-6 mm)"},
      {"measurement": "inhibition zone diameter (number of plus signs)", "setting": "[3]", "result": "+++++ ((+++++) 20 or more min)"},
      {"measurement": "inhibition zone diameter (number of plus signs)", "setting": "Pseudomonas syringae", "result": "++++ ((++++) 15-19 mm)"},
      {"measurement": "inhibition zone diameter (number of plus signs)", "setting": "Rhizobium meliloti", "result": "+++++ ((+++++) 20 or more min)"},
      {"measurement": "inhibition zone diameter (number of plus signs)", "setting": "Haemophilus influenzae", "result": "+++ ((+++) 10-14 mm)"},
      {"measurement": "minimal inhibitory concentration (MIC)", "setting": "E. coli Apid^R [4]; inoculum 12 × 10^6 CFU/ml", "result": "> 40", "unit": "µg/mL"},
      {"measurement": "minimal inhibitory concentration (MIC)", "setting": "E. coli Apid^R [4]; inoculum 1000 CFU/ml", "result": "20 to 40", "unit": "µg/mL"},
      {"measurement": "MIC value", "setting": "E. coli 11775 [5]", "result": 0.1, "unit": "µg/mL"},
      {"measurement": "resistance of mutant relative to parental strain (higher apidaecin concentrations)", "setting": "E. coli Apid^R [6]; 11775Apid^R vs ATCC 11775", "result": "approximately 500 fold"},
      {"measurement": "MIC value", "setting": "E. coli Apid^R [6]; against 10^7 cells/ml, mutant strain 11775Apid^R", "result": 50, "unit": "µg/mL"},
      {"measurement": "minimal inhibitory concentration (MIC)", "setting": "E. coli 11775 [7]; inoculum 16 × 10^6 CFU/ml", "result": "1 to 5", "unit": "µg/mL"},
      {"measurement": "minimal inhibitory concentration (MIC)", "setting": "E. coli 11775 [7]; inoculum 1200 CFU/ml", "result": "< 0.05", "unit": "µg/mL"},
      {"measurement": "minimal inhibitory concentration (MIC)", "setting": "E. coli 23802", "result": "10 to 20", "unit": "µg/mL"},
      {"measurement": "minimal inhibitory concentration (MIC)", "setting": "E. coli 25922", "result": "0.5 to 1", "unit": "µg/mL"},
      {"measurement": "minimal inhibitory concentration (MIC)", "setting": "S. typhimurium", "result": "1 to 5", "unit": "µg/mL"},
      {"measurement": "minimal inhibitory concentration (MIC)", "setting": "A. calcoaceticus", "result": "10 to 20", "unit": "µg/mL"},
      {"measurement": "minimal inhibitory concentration (MIC)", "setting": "M. morganii", "result": "1 to 5", "unit": "µg/mL"},
      {"measurement": "minimal inhibitory concentration (MIC)", "setting": "Y. enterocolitica", "result": "1 to 5", "unit": "µg/mL"}
    ]},
    {"smiles": "CC[C@H](C)[C@H](NC(=O)[C@H](Cc1ccc(O)cc1)NC(=O)[C@@H](NC(=O)[C@@H]1CCCN1C(=O)[C@H](CCCNC(=N)N)NC(=O)[C@H](CC(N)=O)NC(=O)[C@H](CC(N)=O)NC(=O)CN)C(C)C)C(=O)N1CCC[C@H]1C(=O)N[C@@H](CCC(N)=O)C(=O)N1CCC[C@H]1C(=O)N[C@@H](CCCNC(=N)N)C(=O)N1CCC[C@H]1C(=O)N1CCC[C@H]1C(=O)N[C@@H](Cc1cnc[nH]1)C(=O)N1CCC[C@H]1C(=O)N[C@@H](CCCNC(=N)N)C(=O)N[C@@H](CC(C)C)C(=O)O", "note": "[Apidaecin] (H-GNNRPVYIPQPRPPHPRL-OH)", "values": [
      {"measurement": "dose inhibiting viability", "setting": "gram negative bacteria", "result": "nanomolar doses"},
      {"measurement": "effect on gram positives", "setting": "gram positives", "result": "unaffected"}
    ]},
    {"smiles": "CC(C)C[C@H](NC(=O)[C@H](CCCNC(=N)N)NC(=O)[C@@H]1CCCN1C(=O)[C@H](Cc1c[nH]cn1)NC(=O)[C@@H]1CCCN1C(=O)[C@@H](NC(=O)[C@H](CCCNC(=N)N)NC(=O)[C@@H]1CCCN1C(=O)[C@@H]1CCCN1C(=O)[C@@H](NC(=O)[C@H](CCC(N)=O)NC(=O)[C@H](CCC(N)=O)NC(=O)[C@@H]1CCCN1C(=O)[C@H](CCCNC(=N)N)NC(=O)[C@@H]1CCCN1C(=O)[C@H](CCCCN)NC(=O)[C@@H](N)Cc1ccccc1)C(C)C)[C@@H](C)O)C(=O)O", "note": "[HoFT, F K P R P Q Q V P P R T P H P R L] (H-FKPRPQQVPPRTPHPRL-OH)", "values": [
      {"measurement": "antibacterial activity, overall (inhibition zone)", "setting": "strains tested", "result": "lack detectable antibacterial activity"}
    ]}
  ]
}
